Broadly, the MIC is the lowest concentration found to suppress growth.

≈ marks a conversion by molar mass, not a printed value. Where “and” joins values, the source holds several entries; their conditions need not be identical. Equal values may be shown once.

This note sets out measurements from DBAASP.

Test systems include Candida albicans SC5314; Candida albicans C627; Escherichia coli DC2; Escherichia coli UB1005; Candida albicans; Pseudomonas aeruginosa; Pseudomonas fluorescens; Ralstonia pickettii; Staphylococcus aureus.
Holding throughout (assay): ≥ marks a high value that may be exact or a test limit, other limits are often not marked, values filed in µg/mL are converted to µM
Assay [1] relates to Candida albicans CCARM 14020.
The subject of assay [2] is Candida albicans CCARM 14022.
Assay [3] relates to Malassezia sympodialis ATCC 42132.
In assay [4] the test system is Aeromonas salmonicida 97-4.
Assay [5] has as its system Aeromonas salmonicida 99-1.
The test system of assay [6] is Escherichia coli CGSC 4908.
Assay [7] has as its system Pseudomonas aeruginosa K799.
For assay [8], the system named is Pseudomonas aeruginosa Z61.
Assay [9] deals with Salmonella enterica serovar typhimurium MS7953s.
Assay [10] relates to Salmonella enterica subsp. enterica serovar Typhimurium ATCC 14028s.
Assay [11] relates to Staphylococcus aureus C623.
In assay [12] the test system is Staphylococcus epidermidis C621.
The subject of assay [13] is Burkholderia cepacia ATCC 25416.
Assay [14] relates to Pseudomonas aeruginosa ATCC 27853.
Assay [15] has as its system Pseudomonas aeruginosa H374.
In assay [16] the test system is Pseudomonas aeruginosa H547.
In assay [17] the test system is Pseudomonas aeruginosa H744.
The test system of assay [18] is Achromobacter xylosoxidans.
Assay [19] deals with Pseudomonas aeruginosa M1251.
Assay [20] concerns Pseudomonas aeruginosa M1426.
Assay [21] has as its system Pseudomonas aeruginosa M76.
In assay [22] the test system is Pseudomonas aeruginosa M917.
For assay [23], the system named is Pseudomonas aeruginosa PAO1.
Assay [24] has as its system Pseudomonas aeruginosa R70.
Assay [25] has as its system Salmonella enterica serovar Typhimurium.
For assay [26], the system named is Stenotrophomonas maltophilia.
The subject of assay [27] is Bacillus subtilis KCCM 11495.
Assay [28] has as its system Enterococcus faecium CCARM 5028.
The test system of assay [29] is Enterococcus faecium CCARM 5029.
Assay [30] concerns Escherichia coli KCCM 11569.

Take `C[C@H](NC(=O)[C@H](Cc1cnc[nH]1)NC(=O)[C@H](CO)NC(=O)[C@@H](N)CC(=O)O)C(=O)N[C@@H](CCCCN)C(=O)N[C@@H](CCCN=C(N)N)C(=O)N[C@@H](Cc1cnc[nH]1)C(=O)N[C@@H](Cc1cnc[nH]1)C(=O)NCC(=O)N[C@@H](Cc1ccc(O)cc1)C(=O)N[C@@H](CCCCN)C(=O)N[C@@H](CCCN=C(N)N)C(=O)N[C@@H](CCCCN)C(=O)N[C@@H](Cc1ccccc1)C(=O)N[C@@H](Cc1cnc[nH]1)C(=O)N[C@@H](CCC(=O)O)C(=O)N[C@@H](CCCCN)C(=O)N[C@@H](Cc1cnc[nH]1)C(=O)N[C@@H](Cc1cnc[nH]1)C(=O)N[C@@H](CO)C(=O)N[C@@H](Cc1cnc[nH]1)C(=O)N[C@@H](CCCN=C(N)N)C(=O)NCC(=O)N[C@@H](Cc1ccc(O)cc1)C(N)=O` [DSHAKRHHGYKRKFHEKHHSHRGY]: the MIC in [1] is 3.73 µM and 10.5 µM; in [2], 3.73 µM and 10.5 µM; against Candida albicans SC5314 it was 3.73 µM and 10.5 µM; in assay [3], 5.01 µM (≈ 15.2 µg/mL).

In the case of `CC[C@H](C)[C@H](NC(=O)[C@H](C)NC(=O)CNC(=O)[C@H](CCCCN)NC(=O)[C@@H](NC(=O)[C@H](CC(C)C)NC(=O)[C@H](C)NC(=O)CNC(=O)[C@H](CC(C)C)NC(=O)[C@@H](N)Cc1ccccc1)[C@@H](C)CC)C(=O)N[C@@H](Cc1cnc[nH]1)C(=O)NCC(=O)NCC(=O)N[C@@H](CCCNC(=N)N)C(=O)N[C@@H](Cc1ccccc1)C(=O)N[C@H](C(=O)N[C@@H](Cc1cnc[nH]1)C(=O)NCC(=O)N[C@@H](CCSC)C(=O)N[C@H](C(=O)N[C@@H](CCC(N)=O)C(=O)N[C@@H](CC(N)=O)C(=O)N[C@@H](Cc1cnc[nH]1)C(=O)N[C@@H](Cc1cnc[nH]1)C(C)=O)[C@@H](C)CC)[C@@H](C)CC` [FLGALIKGAIHGGRFIHGMIQNHH], the MIC (in assay [4]; in [5]; against Candida albicans C627; in assay [6]; in the assay with Escherichia coli DC2; against Escherichia coli UB1005) was 24.4 µM (≈ 64 µg/mL) each time. Further, the MIC was determined as 24.4 µM (≈ 64 µg/mL) in assay [7]; 12.2 µM (≈ 32 µg/mL) in assay [8]; 24.4 µM (≈ 64 µg/mL) in [9]; 24.4 µM (≈ 64 µg/mL) in [10]; 12.2 µM (≈ 32 µg/mL) in assay [11]; 12.2 µM (≈ 32 µg/mL) in [12].

As for `CC[C@H](C)[C@H](NC(=O)[C@H](CC(C)C)NC(=O)[C@H](C)NC(=O)[C@@H]1CCCN1C(=O)[C@H](CC(C)C)NC(=O)CNC(=O)[C@@H](NC(=O)[C@@H](NC(=O)[C@H](CC(C)C)NC(=O)[C@@H](NC(=O)[C@H](CCCCN)NC(=O)[C@H](CCCCN)NC(=O)[C@H](C)NC(=O)[C@H](C)NC(=O)[C@H](CO)NC(=O)[C@@H](NC(=O)[C@H](CC(C)C)NC(=O)[C@H](CCCCN)NC(=O)[C@H](CCCCN)NC(=O)[C@@H](NC(=O)[C@H](Cc1ccccc1)NC(=O)[C@H](CO)NC(=O)[C@H](CCCCN)NC(=O)[C@H](Cc1c[nH]c2ccccc12)NC(=O)[C@@H](N)CCCCN)[C@@H](C)CC)[C@@H](C)O)C(C)C)[C@@H](C)O)[C@@H](C)O)C(=O)N[C@@H](CO)C(=O)O` [KWKSFIKKLTSAAKKVLTTGLPALIS], the MIC in assay [13] is 22.6 µM (≈ 64 µg/mL); against Escherichia coli UB1005, 0.707 µM (≈ 2 µg/mL); in assay [14] it was 4 µM (≈ 11.3 µg/mL); in [15], 1.41 µM (≈ 4 µg/mL); in assay [16], 2.83 µM (≈ 8 µg/mL); in assay [17], 1.41 µM (≈ 4 µg/mL). The figures for the MIC in assay [7], in assay [8] and in [10] were 1.77 µM (≈ 5 µg/mL), 1.06 µM (≈ 3 µg/mL) and 1.41 µM (≈ 4 µg/mL), respectively.

In the case of `CC(C)C[C@H](NC(=O)[C@H](CC(C)C)NC(=O)[C@H](CCCCN)NC(=O)[C@H](C)NC(=O)[C@H](CC(C)C)NC(=O)[C@H](CCCCN)NC(=O)[C@H](CCCCN)NC(=O)[C@H](CC(C)C)NC(=O)[C@H](C)NC(=O)[C@H](CCCCN)NC(=O)[C@H](CCCCN)NC(=O)[C@H](Cc1ccc(O)cc1)NC(=O)[C@@H](N)CCCCN)C(N)=O` [KYKKALKKLAKLL], the minimal inhibitory concentration (MIC) in assay [18] turned out to be 5.18 µM (≈ 8 µg/mL); against Candida albicans, 5.18 µM (≈ 8 µg/mL); against Escherichia coli UB1005, 2.59 µM (≈ 4 µg/mL); in assay [19] it was 1.29 µM (≈ 2 µg/mL); in assay [20], 10.4 µM (≈ 16 µg/mL); in [21], 2.59 µM (≈ 4 µg/mL). Also, the MIC in assay [22] stood at 10.4 µM (≈ 16 µg/mL); in assay [23], 2.59 µM (≈ 4 µg/mL); in assay [24], 1.29 µM (≈ 2 µg/mL); with Pseudomonas aeruginosa, 5.18 µM (≈ 8 µg/mL); with Pseudomonas fluorescens it was 5.18 µM (≈ 8 µg/mL); with Ralstonia pickettii, 2.59 µM (≈ 4 µg/mL). In addition, the MIC in assay [25] came out at 2.59 µM (≈ 4 µg/mL); in the assay on Staphylococcus aureus, 10.4 µM (≈ 16 µg/mL); in assay [26] it was 1.29 µM (≈ 2 µg/mL).

As to `CC(C)C[C@H](NC(=O)CNC(=O)[C@H](CCCCN)NC(=O)[C@H](CCCCN)NC(=O)[C@H](CC(C)C)NC(=O)[C@H](CC(C)C)NC(=O)[C@H](C)NC(=O)[C@H](CC(N)=O)NC(=O)[C@H](CC(C)C)NC(=O)[C@@H](N)Cc1c[nH]c2ccccc12)C(=O)N[C@@H](CC(N)=O)C(=O)N[C@@H](CS)C(=O)N[C@@H](C)C(=O)N[C@@H](CCCCN)C(=O)NCC(=O)N[C@H](C(=O)N[C@@H](CC(C)C)C(=O)N[C@@H](C)C(N)=O)C(C)C` [WLNALLKKGLNCAKGVLA], the MIC in [27] is 2.96 µM (≈ 5.65 µg/mL); in assay [28], 0.74 µM and 1.48 µM; in [29] it was 0.74 µM and 1.48 µM; in [30], 1.48 µM (≈ 2.83 µg/mL).
